From publication PMC11604048, “Constrained TACC3 peptidomimetics for a non-canonical protein–protein interface elucidate allosteric communication in Aurora-A kinase” (Chemical Science, 2024)
Changes are numbered by the printed parent chain. Names may count otherwise. *1 amine or outer side, *2 acyl side, *3 side chain or, on linkers, in order; H or OH if unused. Where a SMILES comes first, the peptide text is derived from it. Bridges are numbered along the chain shown (N, C = ends). [ ]: non-standard residue; d: D form. Biphenyl(4,4'-CH2)2 = c1cc(-c2ccc(C[*:2])cc2)ccc1C[*:1]; Pro(trans-4-F) = O=C(O)[C@@H]1C[C@@H](F)CN1; Phe(4-I) = N[C@@H](Cc1ccc(I)cc1)C(=O)O

Key:
Trypsin [1] = details: pH 7.5
[2] = biological target: T1, Aurora-A122-403-C290A/C393A (Homo sapiens, UniProt O14965, C290A/C393A); assay: Isothermal titration calorimetry (ITC); format: binding; details: for -TΔS° / Kd / ΔG° / ΔH° / N (stoichiometry): ITC as E13
T1 construct: Human Aurora-A kinase domain 122-403 wild-type or C290A/ C393A mutant; His tag (pET30TEV vector) (N, cleaved yes); made in house; host or cells: E. coli RIL, co-expressed with lambda phosphatase (Aurora-A); tracer by solid phase synthesis
T1 sequence (O14965 122-403 C290A/C393A): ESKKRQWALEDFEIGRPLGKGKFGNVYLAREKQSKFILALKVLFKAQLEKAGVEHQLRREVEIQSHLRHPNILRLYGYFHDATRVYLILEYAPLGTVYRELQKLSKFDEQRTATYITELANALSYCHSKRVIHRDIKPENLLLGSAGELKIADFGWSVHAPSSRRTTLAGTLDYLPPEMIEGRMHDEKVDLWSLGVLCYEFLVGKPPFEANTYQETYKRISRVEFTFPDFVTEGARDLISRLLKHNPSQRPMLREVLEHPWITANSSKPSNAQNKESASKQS
Method: Isothermal titration calorimetry (ITC). ITC experiments were carried out using a MicroCal PEAQ-ITC system (Malvern Panalytical) at 25 °C. A stock solution of Aurora-A 122-403-290A/C393A was dialyzed into ITC buffer overnight (25 mM Tris buffer, pH= 7.5; 150 mM NaCl; 5 mM MgCl2; 5 % v/v glycerol), and the same buffer was employed to resuspend a solid portion of the testing peptides. For each experiment, initially, the cell was filled with 275 µl of Aurora-A122-403-290A/C393A (46 μM) and the syringe was loaded with the corresponding peptide at 1.25 mM concentration. An initial injection of 0.5 μL was then followed by 13 injections of 3 μL, every 150 s, with a constant syringe rotation speed of 750 rpm throughout. The signal for the enthalpy of dilution of each peptide into buffer was independently measured in a control titration experiment and then subtracted from the experimental binding traces. The Kd, ΔG°, ΔH° and -TΔS° values were determined via the MicroCal PEAQ-ITC analysis software (Malvern Paranalytical) using a single-site binding model. […]

Trypsin [3] = assay: Peptide enzymatic degradation assay, trypsin; details: as E60, compared with WT TACC3 518-532
[4] = biological target: T2, α-chymotrypsin (bovine pancreas) (Bos taurus, UniProt P00766); assay: Peptide enzymatic degradation assay, α-chymotrypsin; format: in vitro ADME; details: as E58; for stability to α-chymotrypsin (in words): compared with WT sequence
T2 construct: purchased Sigma; host or cells: bovine pancreas
Method: (§1) into individual aliquots at -20 °C. […]
(§2) a concentration of 1 mg mL−1 concentration. The digestion samples were immediately prepared by mixing […]
(§3) were then incubated at 25 °C for 6 hours. […]
(§4) thermo-shaker for 6 hours. […]
(§5) presence of enzyme (t=0). […]
(§6) r = r଴ + A x e భ Eq. (SI - 10)
(§7) τ = tଵ ln(2) Eq. (SI - 11)
(§8) In all cases, control samples were […]
(§9) replicates and error bars indicating the corresponding SD. […]

[5] = biological target: T1, Aurora-A122-403-C290A/C393A; assay: Competition FA assay against FAM-Ahx-TACC3 522-536 tracer; format: binding; details: SD; read-out: IC50
[6] = biological target: T3, Aurora-A122-403-C290A/C393A (N-Myc/Aurora-A interaction) (Homo sapiens, UniProt O14965, C290A/C393A); assay: FA competition assay against FAM-Ahx-N-Myc61-89; format: binding; details: SD; read-out: IC50 (N-Myc displacement)
T3 construct: Human Aurora-A kinase domain 122-403 wild-type or C290A/ C393A mutant; His tag (pET30TEV vector) (N, cleaved yes); made in house; host or cells: E. coli RIL, co-expressed with lambda phosphatase (Aurora-A)
T3 sequence (O14965 122-403 C290A/C393A): T1 sequence (O14965 122-403 C290A/C393A)
Method: (1 picture or pasted object on this page, not shown here)
FA competition assays were performed using the same plates and buffer as described above, with the initial […]
14 points in a 1/2 regime. […]
after 4 h of incubation to enable appropriate sample equilibration. To prevent sample oxidation, when sulfhydryl peptides were analyzed DTT was added to the buffer (5 mM). In competition mode, the average anisotropy and the average standard deviation of the values derived from equation SI-6 were calculated […]
When using peptides for which full
For consistency, all the data […]
indicating the corresponding SD.
Molecular dynamics (MD) analyses: All peptide–protein complexes were subjected to duplicate MD simulations using YASARA structure.13 Starting from the reported x-ray crystal structure of one molecule of […]
modifications were introduced by direct replacement of the relevant atoms within the structure. When needed, biphenyl constraints were modeled in YASARA by swapping the pertinent amino acids for cysteines and connecting them to biphenyl- fragments. […]
crystal structure), and then minimised structures were generated using the energy minimization function with default settings. The modelled complexes were subjected to MD simulations using YASARA structure macro for fast MD run (www.yasara.org/md_runfast.mcr).14 Briefly, the AMBER14 forcefield was used and […]

[7] = Peptide enzymatic degradation assay, α-chymotrypsin; format: in vitro ADME, bovine; details: α-chymotrypsin (bovine pancreas), peptide 100 µM, peptide/enzyme molar ratio [P]/[E]= 25, HEPES 25 mM, pH 7.5, 25 °C, 6 hours; RP-HPLC peak area, exponential decay fit; three independent experiments, mean ± SD; SD; read-out: t1/2 in the presence of α-chymotrypsin
Method: as §1, §2, §3, §4, §5, §6, §7, §8, §9

Aurora-A 122-403 [8] = biological target: T4, Aurora-A 122-403 (Homo sapiens, UniProt O14965); assay: fluorescence anisotropy competition against N-Myc
T4 chain: T1 sequence (O14965 122-403 C290A/C393A) with A169C, A272C

Aurora-A 122-403 [9] = biological target: T4, Aurora-A 122-403; assay: fluorescence anisotropy competition against TPX2
[10] = N unrestrained fit, single titration

With CC(=O)N[C@@H](CC(C)C)C(=O)N[C@@H](CCC(=O)O)C(=O)N[C@H]1CSCc2ccc(cc2)-c2ccc(cc2)CSC[C@@H](C(=O)N[C@@H](CC(=O)O)C(=O)N2C[C@H](F)C[C@H]2C(=O)N[C@@H](C)C(=O)N[C@@H](CCC(=O)O)C(=O)N[C@H](C(=O)N[C@@H](CC(C)C)C(N)=O)C(C)C)NC(=O)[C@H](Cc2ccc(I)cc2)NC(=O)[C@H](CO)NC(=O)[C@H](CCC(=O)O)NC(=O)[C@H](CCC(=O)O)NC(=O)[C@H](CCCCN)NC1=O [TACC3 518-532-L/R-Bph-IF/fP] (Ac-LECKEES[Phe(4-I)]CD[Pro(trans-4-F)]AEVL-NH2; linker 3-9 via Biphenyl(4,4'-CH2)2) the “t1/2 in the presence of trypsin” value (Trypsin [1]) was no less than 330 min, the “-TΔS°” value ([2]; N restrained fit, Run 1) was -5.5 kcal/mol and the Kd ([2]; N restrained fit, Run 1) was 5.6 µM. The “ΔG°” value ([2]; N restrained fit, Run 1) was -7.17 kcal/mol, the “ΔH°” value ([2]; N restrained fit, Run 1) was -1.65 kcal/mol and the “-TΔS°” value ([2]; N restrained fit, Run 2) was -5.33 kcal/mol. The Kd ([2]; N restrained fit, Run 2) was 5.9 µM, the “ΔG°” value ([2]; N restrained fit, Run 2) was -7.15 kcal/mol and the “ΔH°” value ([2]; N restrained fit, Run 2) was -1.79 kcal/mol. The “-TΔS°” value ([2]; N unrestrained fit, Run 1) was -5.71 kcal/mol, the Kd ([2]; N unrestrained fit, Run 1) was 4.6 µM and the “N (stoichiometry)” value ([2]; N unrestrained fit, Run 1) was 1.06. For the same molecule, the “ΔG°” value ([2]; N unrestrained fit, Run 1) was -7.29 kcal/mol, the “ΔH°” value ([2]; N unrestrained fit, Run 1) was -1.55 kcal/mol and the “-TΔS°” value ([2]; N unrestrained fit, Run 2) was -5.43 kcal/mol. For the same molecule, the Kd ([2]; N unrestrained fit, Run 2) was 5.5 µM, the “N (stoichiometry)” value ([2]; N unrestrained fit, Run 2) was 1.02 and the “ΔG°” value ([2]; N unrestrained fit, Run 2) was -7.17 kcal/mol. For the same molecule, the “ΔH°” value ([2]; N unrestrained fit, Run 2) was -1.74 kcal/mol, the “-TΔS” value ([2]; ITC as E40, average of two independent titrations) was -5.43 kcal/mol and the “stability to trypsin (in words)” value (Trypsin [3]) was “increased resistance”. For the same molecule, the “time resistant to chymotrypsin with no cleavage by-products detected” value ([4]; HPLC and LC/MS analysis) was ~ 6 hr, the “stability to α-chymotrypsin (in words)” value [4] was “increased resistance” and the IC50 [5] was 17 ± 1 µM. It also gave an IC50 [6] of 28.3 ± 1.2 µM.

With CC(=O)N[C@@H](CC(C)C)C(=O)N[C@@H](CCC(=O)O)C(=O)N[C@@H](CC(C)C)C(=O)N[C@@H](CCCCN)C(=O)N[C@@H](CCC(=O)O)C(=O)N[C@@H](CCC(=O)O)C(=O)N[C@H]1CSCc2ccc(cc2)-c2ccc(cc2)CSC[C@@H](C(=O)N[C@H](C(=O)N[C@@H](CC(C)C)C(N)=O)C(C)C)NC(=O)[C@H](C)NC(=O)[C@@H]2C[C@@H](F)CN2C(=O)[C@H](CC(=O)O)NC(=O)[C@H](CCCNC(=N)N)NC(=O)[C@H](Cc2ccc(I)cc2)NC1=O [TACC3 518-532-S/E-Bph-IF/fP] (Ac-LELKEEC[Phe(4-I)]RD[Pro(trans-4-F)]ACVL-NH2; linker 7-13 via Biphenyl(4,4'-CH2)2) the “-TΔS°” value [2, 10] was -4.47 kcal/mol, the Kd [2, 10] was 16.7 µM and the “N (stoichiometry)” value [2, 10] was 1.62. The “ΔG°” value [2, 10] was -6.52 kcal/mol, the “ΔH°” value [2, 10] was -2.06 kcal/mol and the “stability to trypsin (in words)” value (Trypsin [3]) was “only partially improved stability”. For the same molecule, the “stability to trypsin (in words)” value (Trypsin [3]; listed as S/E constrained variant) was “not protected”, the half-life at 100 µM [7] was 26 ± 2 min and the “stability to α-chymotrypsin (in words)” value [4] was “not protected”. The IC50 [5] was 12 ± 1 µM.

B1: TACC3 L/R-Bph-I/fP 518-532 (peptide)
chain: LELKEESFRDPAEVL
modifications: not fully specified; L520C/R526C biphenyl constraint, (4-I)Phe525, trans-(4-F)Pro528; Aurora-A C290A+C393A
B1 gave an IC50 (Aurora-A 122-403 [8]) of 28 µM and an IC50 (Aurora-A 122-403 [9]) greater than 200 µM.
